These results are taken from paper PMC12797250, “Structure–activity relationships can be directly extracted from high-throughput crystallographic evaluation of fragment elaborations in crude reaction mixtures” (Chemical Science, 2025).

For orientation: Kd means the free concentration of one partner at which half of the binding sites on the other are occupied at equilibrium, for simple one-to-one binding. The low end stands for tighter binding, the high end for weaker binding.

Assay [1] addresses T1, PHIP(2) (Homo sapiens, UniProt Q8WWQ0).
T1 construct: second bromodomain
Put plainly: X-ray crystallography, crystal soak. As to conditions: acetylated lysine site; soak 8 mM, 24 h, 4 °C, 20% ethylene glycol, pH about 5.6; flipped and translated pose. In kind it is binding.

The target in assay [2] is T1, PHIP(2). Briefly: grating-coupled interferometry (waveRAPID), immobilised PHIP([…]). Type of assay: binding.

In the case of `CC1=Nc2ccc(C(=O)N3CCN(C(=O)NC(C)(C)C)CC3)cc2C1(C)C` [LAT39], the “X-ray crystallography, crystal soak” value in assay [1] was “long extensions towards the solvent (7FV8, LAT25 and 7FUZ, LAT39)”.

`CNC(=O)N1CCN(C(=O)c2ccc(COc3ccccc3)o2)CC1` [LAT33] returned a Kd in assay [2] of 18 µM.
